{"source": "patent US10507204B2", "about": "“Pharmaceutical composition comprising amorphous lenalidomide” (SYNTHON B.V., priority 2014, dated 2019)", "origin": "cited, not measured here"}
{"smiles": "Nc1cccc2c1CN(C1CCC(=O)NC1=O)C2=O", "note": "(racemic) [Lenalidomide, (RS)-3-(4-Amino-1-oxo 1,3-dihydro-2H-isoindol-2-yl)piperidine-2,6-dione]", "values": [{"measurement": "solubility in water", "value": "slightly soluble"}]}
